This is an account of results in publication PMC10258898, “Discovery of Novel Hydroxyimine-Tethered Benzenesulfonamides as Potential Human Carbonic Anhydrase IX/XII Inhibitors” (ACS Medicinal Chemistry Letters, 2023).

Each structure is given as a SMILES string. Like-named read-outs stand apart in the source and are kept apart here. Bounds are passed on as bounds.

For one series, the target named is hCA IX (Homo sapiens, UniProt Q16790). Briefly: Stopped-flow CO2 hydrase assay, hCA IX inhibition.
The target of another series is hCA XII (Homo sapiens, UniProt O43570). The series is described as follows: Stopped-flow CO2 hydrase assay, hCA XII inhibition. Particulars: read-out: Ki (nM) hCA XII, mean from 3 different assays, errors ±5–10%.
Chain of hCA XII (O43570 25-354): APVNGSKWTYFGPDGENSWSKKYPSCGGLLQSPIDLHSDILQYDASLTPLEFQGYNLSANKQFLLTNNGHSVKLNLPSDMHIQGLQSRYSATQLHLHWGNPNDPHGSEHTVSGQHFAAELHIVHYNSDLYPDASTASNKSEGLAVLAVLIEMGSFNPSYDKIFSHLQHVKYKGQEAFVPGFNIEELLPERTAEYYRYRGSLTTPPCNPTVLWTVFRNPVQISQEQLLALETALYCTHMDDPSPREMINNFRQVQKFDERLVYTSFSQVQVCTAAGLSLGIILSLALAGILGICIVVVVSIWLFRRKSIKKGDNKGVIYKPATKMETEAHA
Where [1] appears, read: read-out: Ki (nM) hCA IX, mean from 3 different assays, errors ±5–10%, stopped-flow CO2 hydrase assay.

Experimental for hCA IX: (§1) as indicator, working at the absorbance maximum of 557 nm, with 20 mM Hepes (pH 7.5) as
(§2) buffer, and 20 mM Na2SO4 (for maintaining constant the ionic strength), following the initial
(§3) have been used for determining the initial velocity. The uncatalyzed rates were determined in
(§4) the same manner and subtracted from the total observed rates. Stock solutions of inhibitor
(§5) (0.1 mM) were prepared in distilled−deionized water and dilutions up to 0.01 nM were done
(§6) thereafter with the assay buffer. Inhibitor and enzyme solutions were preincubated together for 15 min at room temperature prior to assay, in order to allow for the formation of the E−I complex. The inhibition constants were subsequently obtained by nonlinear least-squares
(§7) methods using PRISM 3 and the Cheng−Prusoff equation, as reported earlier, and represent
(§8) the mean from at least three different determinations. All CA isofoms were recombinant ones
(§9) obtained in-house as reported earlier2,3.
Experimental for hCA XII: as §1, §2, §3, §4, §5, §6, §7, §8, §9

Take `NS(=O)(=O)c1ccc(N2CCN(/C(=N/O)c3ccncc3)CC2)cc1` [Compound 27]: the melting point lay within 310 to 311 °C. For the same compound, at hCA IX (setting [1]), the Ki is 110 nM.

On to `NS(=O)(=O)c1ccc(N2CCN(/C(=N/O)c3ccc(O)cc3)CC2)cc1` [Compound 28], for which the melting point was 320 to 321 °C. The Ki on hCA IX (setting [1]) was determined as 1180 nM.

For the compound `NS(=O)(=O)c1ccc(N2CCN(/C(=N/O)c3ccccc3)CC2)cc1` [Compound 29], on hCA IX (setting [1]), the Ki was determined as 121 nM.

In the case of `NS(=O)(=O)c1ccc(N2CCN(C(=NO)c3ccc(Cl)cc3)CC2)cc1` [Compound 30], the melting point stood at 321 °C. This compound also came in with a Ki on hCA IX of 43 nM.

`COc1ccc(/C(=N\O)N2CCN(c3ccc(S(N)(=O)=O)cc3)CC2)cc1` [Compound 31]: the melting point was 310 to 311 °C. Besides, the Ki at hCA IX (setting [1]) stood at 739 nM.

For the compound `NS(=O)(=O)c1ccc(N2CCN(/C(=N/O)c3ccc([N+](=O)[O-])cc3)CC2)cc1` [Compound 32], the melting point lay within 302 to 303 °C. Also, the Ki at hCA XII is > 10000 nM. For the same compound, the Ki on hCA IX (setting [1]) stood at 912 nM.

`NS(=O)(=O)c1ccc(N2CCN(/C(=N/O)c3ccc(F)cc3)CC2)cc1` [Compound 33]: the melting point turned out to be 263 °C. Moreover, the inhibition constant Ki at hCA IX (setting [1]) was 1340 nM.

Compound `Cc1ccc(/C(=N\O)N2CCN(c3ccc(S(N)(=O)=O)cc3)CC2)cc1` [Compound 34] displayed a melting point of 263 to 264 °C. Moreover, the Ki on hCA IX (setting [1]) is > 10000 nM.

The term Ki denotes a measure of affinity in units of concentration, obtained from inhibition or displacement. One may read the melting point as the temperature, or range, at which the solid turns liquid.
